Test [1] deals with Mycobacterium tuberculosis. Kind of test: Antitubercular activity against Mycobacterium tuberculosis H37Ra under aerobic condition after 7 days by MTT method. Conditions: 168 h. It is filed as functional.
Test [2] has as its system Mycolicibacterium smegmatis. Kind of test: Antitubercular activity against Mycobacterium smegmatis MC2 155 under aerobic condition after 24 hrs by MTT method. Format: functional. Conditions: str. MC2 155, 24 h.
The test system of test [3] is Mycolicibacterium smegmatis. Nature of the test: Antitubercular activity against Mycobacterium smegmatis MC2 155 under hypoxic condition after 96 hrs by MTT method. It is filed as functional. As to conditions: str. MC2 155, 96 h.
Test [4] concerns Mycobacterium tuberculosis. Nature of the test: Antitubercular activity against Mycobacterium tuberculosis H37Ra under hypoxic condition after 14 days by MTT method. As to conditions: 336 h. Format: functional.
For test [5], the system named is Mycolicibacterium smegmatis. Nature of the test: Antitubercular activity against guaB3 gene over-expressed Mycobacterium smegmatis MC2 155 ICHO1004. Format: functional. Conditions: str. MC2 155.
Test [6] relates to Mycobacterium tuberculosis. Kind of test: Antitubercular activity against Mycobacterium tuberculosis Kurono ATCC 35812 after 14 days. Format: functional. As to conditions: 336 h.
Test [7] deals with Mycobacterium tuberculosis. Nature of the test: Antitubercular activity against Mycobacterium tuberculosis H37Rv ATCC 25618 after 14 days. Format: functional. Conditions: 336 h.
For the next test, the system named is Mycobacterium avium. Nature of the test: Antitubercular activity against Mycobacterium avium ATCC 35712 after 14 days. Conditions: ATCC 35712, 336 h. It is filed as functional.
The subject of test [8] is Mycolicibacterium smegmatis. Kind of test: Antitubercular activity against guaB2 gene over-expressed Mycobacterium smegmatis MC2 155 ICHO1003. Format: functional. Conditions: str. MC2 155.
Test [9] deals with Mycolicibacterium smegmatis. Kind of test: Antitubercular activity against Mycobacterium smegmatis MC2 155 ICHO1001 with pMV261 transformant. It is filed as functional. As to conditions: str. MC2 155.
Test [10] deals with Mycolicibacterium smegmatis. Nature of the test: Antitubercular activity against guaB1 gene over-expressed Mycobacterium smegmatis MC2 155 ICHO1002. It is filed as functional. As to conditions: str. MC2 155.
The next test relates to Mycolicibacterium aurum. Nature of the test: Antitubercular activity against Mycobacterium aurum ATCC 23366 after 14 days. Conditions: ATCC 23366, 336 h. It is filed as functional.
For test [11], the system named is Mycobacterium tuberculosis. Kind of test: Bactericidal activity against Mycobacterium tuberculosis H37Rv assessed as decrease in CFU at 20 ug/ml after 11 to 28 days. Format: functional.
Test [12] has as its system Mycolicibacterium fortuitum. Nature of the test: Antitubercular activity against Mycobacterium fortuitum ATCC 9820 after 14 days. Format: functional. Conditions: ATCC 9820, 336 h.
Test [13] deals with Mycolicibacterium smegmatis. Kind of test: Bactericidal activity against Mycobacterium smegmatis MC2 155 assessed as decrease in CFU at 10 ug/ml after 4 days. Format: functional, organism-based. As to conditions: str. MC2 155.
The subject of test [14] is Mycobacterium intracellulare. Nature of the test: Antitubercular activity against Mycobacterium intracellular ATCC 35761 after 14 days. Format: functional. Conditions: ATCC 35761, 336 h.
The test system of another test is Mycobacterium kansasii. Kind of test: Antitubercular activity against Mycobacterium kansasii ATCC 35775 after 14 days. Format: functional. As to conditions: ATCC 35775, 336 h.

In brackets after ≈: the same amount, converted by molar mass. Activity calls are given as the source filed them. No cut-off for these calls is given here.

This note sets out measurements from ChEMBL document CHEMBL1155003, “Halicyclamine A, a marine spongean alkaloid as a lead for anti-tuberculosis agent” (2008).

Consider `NNC(=O)c1ccncc1` [ISONIAZID], for which the MIC was 0.05 µg/mL (≈ 0.365 µM) in test [1], 2.5 µg/mL (≈ 18.2 µM) in [2], 25 µg/mL (≈ 182 µM) in test [3] and over 100 µg/mL in test [4].
Consider `C1=C2CCCC/C=C\C=C\CCN3CC[C@@H]4[C@H](CCCCCC/C=C\C=C/CCN(C2)C[C@H]14)C3` [HALICYCLAMINE A], for which the MIC in test [5] was 2.5 µg/mL (≈ 5.4 µM); in [6], 3.13 µg/mL (≈ 6.76 µM); in [7] it was 6.25 µg/mL (≈ 13.5 µM); in [1], 5 µg/mL (≈ 10.8 µM); in the test with Mycobacterium avium, 6.25 µg/mL (≈ 13.5 µM); in [8], 2.5 µg/mL (≈ 5.4 µM). Moreover, the MIC in [2] stood at 2.5 µg/mL (≈ 5.4 µM); in test [9], 2.5 µg/mL (≈ 5.4 µM); in test [10] it was 2.5 µg/mL (≈ 5.4 µM); in the test on Mycolicibacterium aurum, 6.25 µg/mL (≈ 13.5 µM); in test [12], 25 µg/mL (≈ 54 µM); in test [3], 2.5 µg/mL (≈ 5.4 µM). The minimum inhibitory concentration (MIC) in test [14] came to 6.25 µg/mL (≈ 13.5 µM); in test [4], 5 µg/mL (≈ 10.8 µM); in the test on Mycobacterium kansasii it was 3.13 µg/mL (≈ 6.76 µM). The CFU/ml in test [11] is listed as under 10. In [13], the outcome was Active.
